Each structure is given as a SMILES string.

Data set [1] concerns subcutaneously implanted BxPC3 tumors. Put plainly: Pancreatic tumor xenograft model. It counts as in vivo. The conditions noted are these: 10 mg/kg oral gavage everyday. The procedure:
Briefly, In FIG. 4A 1×10^6 BxPC3 cells in 1:1 mixture of PBS and matrigel were subcutaneously implanted in the right flank of 4-6 week old female athymic nude mice (n=5). […] The treatment was given till day 40. Values are plotted as mean±SEM. FIG. 4B orthotopic tumors were aseptically removed and the tumor size was compared between control and pimavanserin treated group. In FIG. 4C mice weight was recorded once in 10 days. The average weight of the mice is plotted against days. Values are plotted as mean±SEM.
Pancreatic tumor xenograft model. Female athymic nude mice (4-6 week old) were purchased from Harlan Laboratory (Livermore, Calif.). All the experiments were performed under the strict compliance and regulations approved from Institutional Animal Care and Use Committee (IACUC), Texas Tech University Health Sciences Center, Amarillo, Tex. 1×10^6 BxPC3 cells were implanted in right flank of the mice. […] Group I was assigned as control group, which received the vehicle only (PBS). Group II mice received 10 mg/kg Pimavanserin tartrate by oral gavage everyday. Treatment with Pimavanserin was started at day 13. Tumor growth was monitored by measuring the tumor volume twice a week until day 40 using a Vernier caliper as described by the present inventors (11). The study was terminated at day 40 due to tumor burden. The mice were euthanized and the tumors were aseptically removed. A part of tumor was snap frozen for western blotting and the other part was fixed in formalin for immunohistochemistry and TUNEL analysis. Mice weight was monitored once in ten days.
Pimavanserin suppresses the growth of subcutaneously implanted pancreatic tumors. To examine the in-vivo efficacy of pimavanserin and to establish the mechanism of tumor growth inhibition in pancreatic cancer, BxPC3 cells were implanted subcutaneously in female athymic nude mice. Once the tumor volume reached 70 mm^3 in size, experimental group of mice were treated with 10 mg/kg pimavanserin by oral gavage everyday. […]

The test system of data set [2] is orthotopically implanted PANC1-luc tumors. Put plainly: Orthotopic pancreatic tumor model. Format: in vivo. The procedure:
1×10^6 PANC-1 luc cells were surgically implanted on the pancreas of 4-6 week old female athymic nude mice (n=5). Mice were treated with 10 mg/kg pimavanserin tartrate at day 17 till day 69. In FIG. 5A tumor luminescence was measured about twice a week and plotted against days. Values are plotted as mean±SEM. In FIG. 5B orthotopic tumors were aseptically removed and the tumor size was compared between control and pimavanserin tartrate treated group. […] The average weight of the mice is plotted against days. Values are plotted as mean±SEM.
Orthotopic pancreatic tumor model. 4-6 week old female athymic nude mice were used for orthotopic injection. All the experiments were performed under the strict compliance and regulations approved from Institutional Animal Care and Use Committee (IACUC), Texas Tech University Health Sciences Center, Amarillo, Tex. Mice were anesthetized by using isoflorane and a minor incision was made in the left abdomen. Stably transfected luciferase-expressing PANC1 (PANC1-luc) cells were orthotopically-implanted in the pancreas. 1×10^6 exponentially growing PANC1-luc cells in 20 μl PBS suspension were injected into the sub-capsular region on the pancreas using a 30-gauge sterile needle. The peritoneum and skin incisions were closed sequentially with absorbable suture. Buprenorphine was administered as a pain killer to mice at every 8 hours for 2 days. The growth of orthotopically-implanted tumors was monitored by measuring the luminescence by IVIS imaging (Calliper Life Sciences). In order to determine the basal luminescence value, mice were imaged on the same day after injecting luciferin (3 mg/mouse, i.p.). Mice were randomly divided into two groups (control and treatment) on day 17 after orthotopic injection of PANC1 luc cells. Control group received vehicle only whereas treatment group received 10 mg/kg pimavanserin tartrate by oral gavage everyday. The study was terminated at day 69 by humanely euthanizing the mice using CO2 overdose. The mice was dissected and representative mouse from control and treatment groups were imaged for luminescence. The pancreas from control and treatment groups were aseptically excised out and snap frozen for western blot analysis, whereas few pancreas were fixed in formalin for immunohistochemical and TUNEL analysis. Mice weight was monitored once a week.
Pimavanserin inhibits the growth of orthotopic pancreatic tumors. In order to further validate the in-vivo efficacy of pimavanserin, PANC-1 luc cells were orthotopically implanted into the pancreas of athymic nude mice. After 17 days of tumor implantation, mice were treated with 10 mg/kg pimavanserin by oral gavage everyday. […] After terminating the experiment, tumors were removed and weighed. The average weight of pimavanserin treated tumors was 46% less when compared to the tumors excised form control group (FIGS. 5B & 5D). Furthermore, the inventors also compared the luminescence between both the groups in isolated pancreas.

With `CC(C)COc1ccc(CNC(=O)N(Cc2ccc(F)cc2)C2CCN(C)CC2)cc1` [pimavanserin, N-(4-fluorophenylmethyl)-N-(1-methylpiperidin-4-yl)-N′-(4-(2-methylpropyloxy)phenylmethyl)carbamide], the “average tumor volume at the day of sacrifice” value in data set [1] (day 40, control group 873.395 mm3) worked out at 429.01 mm3. Further, in data set [1] (throughout the study), the “overall weight of mice vs control (general signs of toxicity)” value is reported as “similar”. In data set [1] (vs control), the “suppression of growth of BxPC3 tumors” value came to 50%. In data set [2] (10 mg/kg oral gavage everyday), the “overall weight of the mice vs control (general signs of toxicity)” value is “did not reduce” and the “suppression of orthotopic pancreatic tumor growth” value was determined as 75%. Moreover, the “total flux (luminescence) at the end of the experiment” value in data set [2] (10 mg/kg oral gavage everyday from day 17, day 69, control 1.45542×10^9 photons/second) is reported as 3.386×10^8 photons/sec. Besides, the “decrease of luminescence vs control group” value in data set [2] (10 mg/kg oral gavage everyday, end of the experiment) came out at 75%. Moreover, the “average weight of tumors, less than control group” value in data set [2] (10 mg/kg oral gavage everyday, excised tumors after terminating the experiment) is 46%.

Values taken from US11357766B2, “Compositions and methods for treating cancer” (Texas Tech University System, priority 2017, dated 2022).
